Measurements taken from patent US5236948A, “Sulphonamide derivatives” (Imperial Chemical Industries PLC, priority 1991, dated 1993).

Tests used:
[1] = target: T1, 5-LO (Rattus norvegicus, UniProt P12527); test: Test c) in vivo zymosan-induced LTB4 liberation in rat air pouch, oral compound; conditions: 3 h; test c)
T1 construct: an air pouch generated within the subcutaneous tissue of the back of male rats; endogenous in cells; host or cells: cells of the zymosan-inflamed air pouch of live male rats
T1 sequence (P12527 1-673): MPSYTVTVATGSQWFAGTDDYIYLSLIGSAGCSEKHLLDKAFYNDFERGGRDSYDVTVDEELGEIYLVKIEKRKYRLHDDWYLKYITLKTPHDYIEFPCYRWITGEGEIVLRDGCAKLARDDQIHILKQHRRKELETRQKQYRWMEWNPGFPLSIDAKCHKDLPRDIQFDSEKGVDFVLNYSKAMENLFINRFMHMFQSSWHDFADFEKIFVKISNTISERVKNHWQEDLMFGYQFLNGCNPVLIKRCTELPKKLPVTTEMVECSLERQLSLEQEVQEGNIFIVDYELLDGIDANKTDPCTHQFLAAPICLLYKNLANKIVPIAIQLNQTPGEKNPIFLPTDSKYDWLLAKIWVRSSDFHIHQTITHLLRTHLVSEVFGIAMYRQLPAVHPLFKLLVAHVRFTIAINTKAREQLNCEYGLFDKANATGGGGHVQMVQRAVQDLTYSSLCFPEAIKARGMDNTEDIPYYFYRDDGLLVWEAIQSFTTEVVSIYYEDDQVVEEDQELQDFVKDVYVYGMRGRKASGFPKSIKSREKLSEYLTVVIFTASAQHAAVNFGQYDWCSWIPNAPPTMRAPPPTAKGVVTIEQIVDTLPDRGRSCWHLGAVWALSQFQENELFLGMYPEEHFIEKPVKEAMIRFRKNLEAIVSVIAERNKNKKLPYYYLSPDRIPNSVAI
Method: c) An in vivo system involving measuring the effects of a test compound administered orally against the liberation of LTB4 induced by zymosan within an air pouch generated within the subcutaneous tissue of the back of male rats. The rats are anaesthetised and air pouches are formed by the injection of sterile air (20 ml). A further injection of air (10 ml) is similarly given after 3 days. At 6 days after the initial air injection the test compound is administered (usually orally as the suspension produced when a solution of the test compound in dimethylsulphoxide is added to hydroxypropylmethylcellulose), followed by the intrapouch injection of zymosan (1 ml of a 1% suspension in physiological saline). After 3 hours the rats are killed, the air pouches are lavaged with physiological saline, and the specific radioimmunoassay described above is used to assay LTB4 in the washings. This test provides an indication of inhibitory effects against 5-LO in an inflammatory milieu.

[2] = target: T2, 5-LO (Homo sapiens, UniProt P09917); test: Test a) in vitro inhibition of LTB4 formation in heparinised human blood challenged with A23187 (radioimmunoassay); format: cell-based
T2 construct: incubating a test compound with heparinised human blood; endogenous in cells; host or cells: blood cells in heparinised human whole blood
T2 sequence (P09917 1-674): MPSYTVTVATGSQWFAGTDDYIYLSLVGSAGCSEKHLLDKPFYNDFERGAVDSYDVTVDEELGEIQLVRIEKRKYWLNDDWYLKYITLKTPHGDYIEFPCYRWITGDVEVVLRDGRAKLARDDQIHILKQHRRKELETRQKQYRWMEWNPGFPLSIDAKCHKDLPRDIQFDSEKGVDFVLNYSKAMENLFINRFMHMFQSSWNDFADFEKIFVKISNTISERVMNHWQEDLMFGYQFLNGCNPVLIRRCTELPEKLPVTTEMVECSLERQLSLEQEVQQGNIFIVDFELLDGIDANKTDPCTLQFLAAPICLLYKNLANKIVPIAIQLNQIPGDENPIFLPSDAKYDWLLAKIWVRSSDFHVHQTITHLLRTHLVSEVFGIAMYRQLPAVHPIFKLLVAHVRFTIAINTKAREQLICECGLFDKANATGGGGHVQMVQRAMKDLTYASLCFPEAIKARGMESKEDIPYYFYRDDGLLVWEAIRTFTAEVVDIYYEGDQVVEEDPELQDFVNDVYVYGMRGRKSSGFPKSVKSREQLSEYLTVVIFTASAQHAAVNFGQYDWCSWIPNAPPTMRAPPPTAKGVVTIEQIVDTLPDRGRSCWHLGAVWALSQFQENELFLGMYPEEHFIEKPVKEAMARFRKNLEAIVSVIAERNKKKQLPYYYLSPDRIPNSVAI
Method: a) An in vitro assay system involving incubating a test compound with heparinised human blood, prior to challenge with the calcium ionophore A23187 and then indirectly measuring the inhibitory effects on 5-LO by assaying the amount of LTB4 using specific radioimmunoassays described by Carey and Forder (Prostaglandins, Leukotrienes Med., 1986, 22, 57; Prostaglandins, 1984, 28, 666; Brit. J. Pharmacol., 1985, 84, 34P) which involve the use of a protein-LTB4 conjugate produced using the procedure of Young et alia (Prostaglandins, 1983, 26(4), 605-613). The effects of a test compound on the enzyme cyclooxygenase (which is involved in the alternative metabolic pathway for arachidonic acid and gives rise to prostaglandins, thromboxanes and related metabolites) may be measured at the same time using the specific radioimmunoassay for thromboxane B2 (TxB2) described by Carey and Forder (see above). This test provides an indication of the effects of a test compound against 5-LO and also cyclooxygenase in the presence of blood cells and proteins. It permits the selectivity of the inhibitory effect on 5-LO or cyclooxygenase to be assessed.

| Compound | ED50 [1] | IC50 [2] |
| --- | --- | --- |
| COC1(c2cccc(Sc3ccc(NS(C)(=O)=O)c(Cl)c3)c2)CCOCC1 [N-{2-chloro-4-[3-(4-methoxytetrahydropyran-4-yl)phenylthio]phenyl)-methanesulphonamide] | 1.5 mg/kg | 1 µM |
| COC1(c2cccc(Sc3ccc(N(C)S(C)(=O)=O)cc3Cl)c2)CCOCC1 [N-{3-chloro-4-[3-(4-methoxytetrahydropyran-4-yl)phenylthio]phenyl}-N-methylmethanesulphonamide] | 1 mg/kg | 0.09 µM |
